Patent US20250381198A1 (Melt Pharmaceuticals, Inc., priority 2024, published 2025)

Experiments:
Format in all cases: in vivo, human
[1] = system: subjects undergoing cataract extraction with lens replacement (CELR); assay: Phase 3 MELT-300: procedural sedation responders (primary endpoint); settings: for Procedural sedation responder - n: number of subjects
Description: Eligible participants were admitted to the study unit on Day 1.
Participants received study medication 30 (+5) minutes, without food or water, before planned surgery start (defined as instillation of topical ocular anesthetic gel (3 drops of chloroprocaine hydrochloride ophthalmic gel)).
The effectiveness of MELT-300 was evaluated after study medication is administered before surgery, in the course of surgery (intraoperatively), and postoperative on Day 1 (end of surgery defined as just prior to drape removal). Efficacy assessments included assessments of sedation, need for rescue medication for sedation, need for rescue medication for pain, and the ability to complete the surgery.
Achievement of the primary endpoint (i.e., procedural sedation) was evaluated. Success for a procedural sedation responder was defined as a subject that achieved the target sedation level (RSS level 2 or 3) by the start of surgery without the need for rescue sedation medication, no requirement for intraoperative sedation medication, and who was able to complete the surgery.
Treatment differences were tested using a Pearson's chi-square test where a p-value<0.05 indicated a difference, with a Fisher's exact test being used instead if any expected values were <5. […] A supportive stratified analysis was performed using the Cochran-Mantel-Haenszel (CMH) row-mean score test to stratify by site grouping.
This sensitivity analysis utilized the last observation (collected after study drug administration) carried forward method for imputing missing preoperative RSS scores just prior to the start of surgery.

[2] = system: subjects undergoing cataract extraction with lens replacement (CELR); assay: Phase 3: requirement for rescue sedation medication (first key secondary); settings: for Requirement for rescue sedation medication - n: number of subjects
Description: Analysis of the first key secondary analysis of requirement for rescue sedation medication was performed. Requirement for rescue sedation medication was defined as a subject that received rescue sedation medication during the preoperative or intraoperative period. Group comparisons and statistics were analogous to those for TABLES 42-44.

[3] = system: subjects undergoing cataract extraction with lens replacement (CELR); assay: Phase 3: preoperative procedural sedation responders (second key secondary); settings: for Preoperative procedural sedation responder - n: number of subjects
[4] = system: subjects undergoing cataract extraction with lens replacement (CELR); assay: Phase 3: Ramsay sedation scale (RSS) scores; settings: ITT analysis set
Description: The RSS scores are summarized for: the baseline, just prior to the start of surgery, the minimum and maximum preoperative score, the minimum and maximum intraoperative score, the minimum and maximum postoperative score, and the maximum overall score.

[5] = system: subjects undergoing cataract extraction with lens replacement (CELR); assay: Phase 3: surgery completion
Description: A plot of the Kaplan-Meier Curve for time to achieve preoperative target sedation level for the all-treated analysis set is provided in FIG. 5.

[6] = system: subjects undergoing cataract extraction with lens replacement (CELR); assay: Phase 3: intraoperative supplemental analgesia; settings: intention-to-treat analysis set
[7] = system: subjects undergoing cataract extraction with lens replacement (CELR); assay: Phase 3: surgeon satisfaction (5-point Likert scale); design: key to Surgeon Satisfaction Scores, Min / Surgeon Satisfaction Scores, Max: 5=very satisfied; 4=satisfied; 3=neither satisfied nor dissatisfied; 2=dissatisfied; 1=very dissatisfied; settings: ITT analysis set
Description: Surgeon satisfaction with the operative experience was measured postoperatively on Day 1 using a 5-point Likert scale (5=very satisfied; 4=satisfied; 3=neither satisfied nor dissatisfied; 2=dissatisfied; 1=very dissatisfied). […] The means were compared using 2-sample t-tests and the Satterthwaite method. The proportion of satisfied responses (‘Very Satisfied’ or ‘Satisfied’, pooled) were tested using a Pearson's chi-square test; and a Fisher's exact test was used instead if any expected values were <5.

[8] = Just prior to the start of surgery

Cc1ncc2n1-c1ccc(Cl)cc1C(c1ccccc1F)=NC2 [Midazolam, 8-chloro-6-(2-fluorophenyl)-1-methyl-4H-imidazo[1,5-a][1,4]benzodiazepine]
Procedural sedation responder - % ([1]; All-Treated Analysis Set): 65.2% | Procedural sedation responder - n ([1]; All-Treated Analysis Set): 58 | Procedural sedation responder - % ([1]; ITT Analysis Set): 65.2% | Procedural sedation responder - n ([1]; ITT Analysis Set): 58 | Procedural sedation responders (achieved target sedation) ([1]; ITT analysis set, MELT-300 or 3 mg midazolam sublingual tablet before CELR): 65.2% | Procedural sedation responder - % ([1]; PP Analysis Set): 65.2% | Procedural sedation responder - n ([1]; PP Analysis Set): 58 | Requirement for rescue sedation medication - % ([2]; All-Treated Analysis Set): 33.7% | Requirement for rescue sedation medication - n ([2]; All-Treated Analysis Set): 30 | Requirement for rescue sedation medication - % ([2]; ITT Analysis Set): 33.7% | Requirement for rescue sedation medication - n ([2]; ITT Analysis Set): 30 | Subjects who required rescue sedation medication ([2]; ITT analysis set, preoperative or intraoperative period): 33.7% | Requirement for rescue sedation medication - % ([2]; PP Analysis Set): 33.7% | Requirement for rescue sedation medication - n ([2]; PP Analysis Set): 30 | Subjects who required rescue sedation medication ([2]; PP analysis set): 33.7% | Subjects who required rescue sedation medication ([2]; all-treated analysis set): 33.7% | Preoperative procedural sedation responder - % ([3]; All-Treated Analysis Set): 73.0% | Preoperative procedural sedation responder - n ([3]; All-Treated Analysis Set): 65 | Preoperative procedural sedation responder - % ([3]; ITT Analysis Set): 73.0% | Preoperative procedural sedation responder - n ([3]; ITT Analysis Set): 65 | Preoperative procedural sedation responders ([3]; ITT analysis set): 73.0% | Preoperative procedural sedation responder - % ([3]; PP Analysis Set): 73.0% | Preoperative procedural sedation responder - n ([3]; PP Analysis Set): 65 | Preoperative procedural sedation responders ([3]; PP analysis set): 73.0% | Preoperative procedural sedation responders ([3]; all-treated analysis set): 73.0% | Ramsay sedation scale score 1, number of subjects ([4]; Baseline): 89 | Ramsay sedation scale score 1, percent of subjects (in parentheses) ([4]; Baseline): (100.0) | Ramsay sedation scale score 2-3, number of subjects ([4]; Baseline): 0 | Ramsay sedation scale score 4, number of subjects ([4]; Baseline): 0 | Ramsay sedation scale score 5+, number of subjects ([4]; Baseline): 0 | Ramsay sedation scale: Prior rescue sedation medication given, number of subjects ([4]; Baseline): 0 | Ramsay sedation scale score 1, number of subjects [4, 8]: 7 | Ramsay sedation scale score 1, percent of subjects (in parentheses) [4, 8]: (7.9) | Ramsay sedation scale score 2-3, number of subjects [4, 8]: 65 | Ramsay sedation scale score 2-3, percent of subjects (in parentheses) [4, 8]: (73.0) | Ramsay sedation scale score 4, number of subjects [4, 8]: 0 | Ramsay sedation scale score 5+, number of subjects [4, 8]: 0 | Ramsay sedation scale: Prior rescue sedation medication given, number of subjects [4, 8]: 17 | Ramsay sedation scale: Prior rescue sedation medication given, percent of subjects (in parentheses) [4, 8]: (19.1) | Ramsay sedation scale score 1, number of subjects ([4]; Maximum intraoperative score): 4 | Ramsay sedation scale score 1, percent of subjects (in parentheses) ([4]; Maximum intraoperative score): (4.5) | Ramsay sedation scale score 2-3, number of subjects ([4]; Maximum intraoperative score): 60 | Ramsay sedation scale score 2-3, percent of subjects (in parentheses) ([4]; Maximum intraoperative score): (67.4) | Ramsay sedation scale score 4, number of subjects ([4]; Maximum intraoperative score): 0 | Ramsay sedation scale score 5+, number of subjects ([4]; Maximum intraoperative score): 0 | Ramsay sedation scale: Prior rescue sedation medication given, number of subjects ([4]; Maximum intraoperative score): 25 | Ramsay sedation scale: Prior rescue sedation medication given, percent of subjects (in parentheses) ([4]; Maximum intraoperative score): (28.1) | Ramsay sedation scale score 1, number of subjects ([4]; Maximum postoperative score): 45 | Ramsay sedation scale score 1, percent of subjects (in parentheses) ([4]; Maximum postoperative score): (50.6) | Ramsay sedation scale score 2-3, number of subjects ([4]; Maximum postoperative score): 14 | Ramsay sedation scale score 2-3, percent of subjects (in parentheses) ([4]; Maximum postoperative score): (15.7) | Ramsay sedation scale score 4, number of subjects ([4]; Maximum postoperative score): 0 | Ramsay sedation scale score 5+, number of subjects ([4]; Maximum postoperative score): 0 | Ramsay sedation scale: Prior rescue sedation medication given, number of subjects ([4]; Maximum postoperative score): 29 | Ramsay sedation scale: Prior rescue sedation medication given, percent of subjects (in parentheses) ([4]; Maximum postoperative score): (32.6) | Ramsay sedation scale score 1, number of subjects ([4]; Maximum preoperative score): 22 | Ramsay sedation scale score 1, percent of subjects (in parentheses) ([4]; Maximum preoperative score): (24.7) | Ramsay sedation scale score 2-3, number of subjects ([4]; Maximum preoperative score): 67 | Ramsay sedation scale score 2-3, percent of subjects (in parentheses) ([4]; Maximum preoperative score): (75.3) | Ramsay sedation scale score 4, number of subjects ([4]; Maximum preoperative score): 0 | Ramsay sedation scale score 5+, number of subjects ([4]; Maximum preoperative score): 0 | Ramsay sedation scale: Prior rescue sedation medication given, number of subjects ([4]; Maximum preoperative score): 0 | Ramsay sedation scale score 1, number of subjects ([4]; Maximum score overall): 22 | Ramsay sedation scale score 1, percent of subjects (in parentheses) ([4]; Maximum score overall): (24.7) | Ramsay sedation scale score 2-3, number of subjects ([4]; Maximum score overall): 67 | Ramsay sedation scale score 2-3, percent of subjects (in parentheses) ([4]; Maximum score overall): (75.3) | Ramsay sedation scale score 4, number of subjects ([4]; Maximum score overall): 0 | Ramsay sedation scale score 5+, number of subjects ([4]; Maximum score overall): 0 | Ramsay sedation scale: Prior rescue sedation medication given, number of subjects ([4]; Maximum score overall): 0 | Ramsay sedation scale score 1, number of subjects ([4]; Minimum intraoperative score): 4 | Ramsay sedation scale score 1, percent of subjects (in parentheses) ([4]; Minimum intraoperative score): (4.5) | Ramsay sedation scale score 2-3, number of subjects ([4]; Minimum intraoperative score): 60 | Ramsay sedation scale score 2-3, percent of subjects (in parentheses) ([4]; Minimum intraoperative score): (67.4) | Ramsay sedation scale score 4, number of subjects ([4]; Minimum intraoperative score): 0 | Ramsay sedation scale score 5+, number of subjects ([4]; Minimum intraoperative score): 0 | Ramsay sedation scale: Prior rescue sedation medication given, number of subjects ([4]; Minimum intraoperative score): 25 | Ramsay sedation scale: Prior rescue sedation medication given, percent of subjects (in parentheses) ([4]; Minimum intraoperative score): (28.1) | Ramsay sedation scale score 1, number of subjects ([4]; Minimum postoperative score): 49 | Ramsay sedation scale score 1, percent of subjects (in parentheses) ([4]; Minimum postoperative score): (55.1) | Ramsay sedation scale score 2-3, number of subjects ([4]; Minimum postoperative score): 10 | Ramsay sedation scale score 2-3, percent of subjects (in parentheses) ([4]; Minimum postoperative score): (11.2) | Ramsay sedation scale score 4, number of subjects ([4]; Minimum postoperative score): 0 | Ramsay sedation scale score 5+, number of subjects ([4]; Minimum postoperative score): 0 | Ramsay sedation scale: Prior rescue sedation medication given, number of subjects ([4]; Minimum postoperative score): 29 | Ramsay sedation scale: Prior rescue sedation medication given, percent of subjects (in parentheses) ([4]; Minimum postoperative score): (32.6) | Completed surgery without intervention due to pain or anxiety ([5]; ITT Analysis Set): 89 (100.0) n (%) | Completed the surgery ([5]; ITT Analysis Set): 89 (100.0) n (%) | Subjects who completed the surgery ([5]; ITT analysis set): 100.0% | Subjects Completed Surgery, % ([5]; Summary of Disposition, value in parentheses, percent of ITT set): (100) | Subjects who received intraoperative supplemental analgesia [6]: 1.1% | Surgeon Satisfaction Scores, Max ([7]; 5-point Likert scale): 5 | Surgeon Satisfaction Scores, Mean ± SD ([7]; 5-point Likert scale): 4.8 ± 0.56 | Surgeon Satisfaction Scores, Median ([7]; 5-point Likert scale): 5.0 | Surgeon Satisfaction Scores, Min ([7]; 5-point Likert scale): 2 | Surgeon Satisfaction Score 1 = Very Dissatisfied [7]: 0 n
